In patent publication US6403788B1, “Non-genotoxic metalloporphyrins as synthetic catalytic scavengers of reactive oxygen species” (Eukarion, Inc., priority 2000, dated 2002):

Legend:
[1] = system: ΦX 174 DNA Plasmid (Form I); experiment: Cleavage of ΦX 174 DNA plasmid (form I), activation with ascorbate in the presence of air; assay type: biochemical, phage ΦX 174; settings: DNA 3.5 nM, Asc. 1 mM
Excerpt: The DNA cleavage activity was quantified in terms of number of single-strand breaks per DNA molecule according to the equation […], Io=% form I (supercoiled DNA) in the DNA control, and I=% form I in the experiment (see Bernadou et al, Biochemistry, 28: 7268-7275, (1989)). This assay is very sensitive and is able to detect very low levels of DNA activity. S values less than S=1.0 are indicative of very low DNA cleavage activity when the compounds are at a concentration of equal to or less than 1000 nM and KHSO5 is present at a concentration of equal to or less than 100 μM.
ΦX 174 DNA digestion conditions for standard experiments were as follows: commercially available DNA was diluted to 50 μg/mL in phosphate buffer (10 mM, pH 7.5). The reaction involved 5 μL of ΦX 174 DNA (50 μg/mL, 74.8 μM in base pairs), 5 μL of 40 mM phosphate buffer, pH 7.5 with 400 mM NaCl, 5 μL of metalloporphyrin in double-distilled water or 5 μL of iron-bleomycin complex in double-distilled water, and 5 μL of KHSO5 or 5 μL of H2O2 or 5 μL of ascorbate in double-distilled water. Preincubation of DNA and metalloporphyrins or iron-bleomycin complex was performed for about 15 min. The digestion time in the presence of KHSO5 was 10 min, of H2O2 was 30 min and of ascorbate was 30 min at 20° C. DNA cleavage was monitored by agarose gel electrophoresis. Reactions with KHSO5 were first quenched by 2 μL of 100 mM Hepes buffer, pH 8. In all cases, reactions were quenched by 5 μL of a stopping reagent. The stopping reagent consisted of 250 mM Hepes buffer, pH 7.4, containing 75% glycerol and 0.05% bromophenol blue. Reaction mixtures were then run in 0.8% agarose slab horizontal gel containing ethidium bromide […], at constant current (25 mA for 15h), in 89 mM Tris-borate buffer and 2.5 mM EDTA pH 8.3. Bands were located by WV light (254 nm), photographed, and quantitated by microdensitometry. The correction coefficient 1.47±0.30 was used for decreased stainability of form I DNA vs form II DNA and form III DNA.

[2] = system: CBA/J female mice, oxazolone-induced inflammatory ear edema; experiment: Delayed type hypersensitivity: oxazolone-induced ear edema; assay type: in vivo
Excerpt: CBA/J female mice (Jackson Labs, Bar Harbor, ME) 7 weeks of age were pre-sensitized with 3% oxazolone (Sigma Chemical Co., St. Louis, Mo.) in 99.9% acetone, on the abdomen. After 8 days, the mice were challenged with 1.2% oxazolone topically on one ear to induce an inflammatory edema. Either Structural Formula V, Structural Formula IV at a dose of 7 nmoles/ear each, or ethanol, i.e. vehicle control (eight mice per study group), was applied topically to the ear immediately after the oxazolone challenge. Ear edema was measured by comparing the tissue water content (the wet weight minus the dry weight) of the challenged ear to that of the control ear. The percent edema (% water in the right ear-left ear) in the vehicle control was 6.5% and 2.1% and 3.9% for Structural Formula V and Structural Formula IV, respectively at a dose of 7 nmoles/ear.

Q: `CC[NH+](CC)CCNS(=O)(=O)c1c(C)cc(C)c(C2=C3C=CC4=[N+]3[Fe-]35[n]6c2ccc6C(c2c(C)cc(C)c(S(=O)(=O)NCC[NH+](CC)CC)c2C)=C2C=CC(=[N+]23)C(c2c(C)cc(C)c(S(=O)(=O)NCC[NH+](CC)CC)c2C)=c2ccc([n]25)=C4c2c(C)cc(C)c(S(=O)(=O)NCC[NH+](CC)CC)c2C)c1C.[Cl-].[Cl-].[Cl-].[Cl-].[Cl-]` [Structural Formula V, meso-tetrakis[3-(N-(2-(N,N-diethylammonio)ethyl)aminosulfonyl)-2,4,6-trimethylphenyl]porphyrinato diaqua-iron (III) pentachloride] was tested. Which “S (single-strand breaks per DNA molecule)” value ([1]; compound 10 nM) did it give?
A: 0.11 SSBs

Q: And the “form % I” value ([1]; compound 10 nM)?
A: 87%

Q: What about the “form % II” value ([1]; compound 10 nM) of the same molecule?
A: 13%

Q: What about the “form % III” value ([1]; compound 10 nM) of the same molecule?
A: 0%

Q: What about the “S (single-strand breaks per DNA molecule)” value ([1]; compound 100 nM) of the same molecule?
A: 0.34 SSBs

Q: What about the “form % I” value ([1]; compound 100 nM) of the same molecule?
A: 75%

Q: And the “form % II” value ([1]; compound 100 nM)?
A: 25%

Q: And the “form % III” value ([1]; compound 100 nM)?
A: 0%

Q: What about the “S (single-strand breaks per DNA molecule)” value ([1]; compound 1 μM) of the same molecule?
A: 2.76 SSBs

Q: What about the “form % I” value ([1]; compound 1 μM) of the same molecule?
A: 29%

Q: And the “form % II” value ([1]; compound 1 μM)?
A: 71%

Q: And the “form % III” value ([1]; compound 1 μM)?
A: 0%

Q: And the “effect on edema compared to vehicle” value ([2]; 7 nmoles/ear topically)?
A: effective in reducing the percentage of edema

Q: What about the “percent edema (% water in the right ear-left ear)” value ([2]; 7 nmoles/ear topically immediately after oxazolone challenge, vehicle control 6.5%) of the same molecule?
A: 2.1%
